Data on ten compounds can be found in patent publication US10781214B2, “Kinase inhibitor against wild-type and mutant EGFR” (PRECEDO PHARMACEUTICALS CO., LTD, priority 2015, dated 2020).

What is called GI50 is the concentration at which growth is held to half of that of the control.

What all share (format): cell-based
One experiment deals with mouse pro-B cell BaF3. Put plainly: Cell growth, Cell Titer-Glo, 72 h: BaF3. The note with it: BaF3 cells, 72 h, read-out: GI50. The source says: (§1) Compounds of the present invention were further evaluated for their selectivity in inhibiting proliferation of cancer cells by testing effects of the novel kinase inhibitors on proliferation of cancer cells. In the examples the following cells were selected: human non-small cell lung cancer cell NCI-H1975 (expressing EGFR L858R/T790M double-mutant gene), human-derived non-small cell lung cancer cell PC-9 (expressing EGFR delE746_A750 mutant gene), human-derived non-small cell lung cancer cell HCC827 (expressing EGFR delE746_A750 mutant gene), human lung adenocarcinoma cell HCC4006 (expressing EGFR delE746_A750 mutant gene), human non-small cell lung cancer cell NCI-H3255 (expressing EGFR L858R mutant gene), human skin squamous carcinoma cell A431 (expressing wild-type EGFR gene), human non-small cell lung cancer cell A549 (expressing wild-type EGFR gene), human non-small cell lung cancer cell NCI-H460 (expressing wild-type EGFR gene), human non-small cell lung cancer cell NCI-H2122 (expressing wild-type EGFR gene), Chinese hamster ovary (CHO) cell (Cricetulus griseus, hamster, Chinese, ovary), Chinese hamster lung cell (CHL), mouse pro-B cell BaF3. The cells above were all purchased from (USA).
(§2) The cells were incubated for 72 h, and then the number of viable cells was determined via quantitative determination with a microplate reader by using Cell Titer-Glo® (Promega, the USA) Luminescent Cell Viability Assay kit.

The subject of experiment [1] is NCI-H1975 (expressing EGFR L858R/T790M double-mutant gene). Put plainly: Cancer cell growth, Cell Titer-Glo, 72 h: NCI-H1975. The note with it: Homo sapiens; NCI-H1975 cells, 72 h; read-out: GI50.
Description: as §1, §2
On the technique in general: In ATP-based viability assays light output follows the ATP content of the culture.

Experiment [2] relates to A549 (expressing wild-type EGFR gene). Put plainly: Cancer cell growth, Cell Titer-Glo, 72 h: A549. The note with it: Homo sapiens; A549 cells, 72 h; read-out: GI50.
Description: as §1, §2

For experiment [3], the system named is PC-9 (expressing EGFR delE746_A750 mutant gene). Briefly: Cancer cell growth, Cell Titer-Glo, 72 h: PC-9. The note with it: Homo sapiens; PC-9 cells, 72 h; read-out: GI50.
Description: as §1, §2

Experiment [4] has as its system NCI-H3255 (expressing EGFR L858R mutant gene). Briefly: Cancer cell growth, Cell Titer-Glo, 72 h: NCI-H3255. The note with it: Homo sapiens; NCI-H3255 cells, 72 h; read-out: GI50.
Description: as §1, §2

In experiment [5] the test system is HCC827 (expressing EGFR delE746_A750 mutant gene). Put plainly: Cancer cell growth, Cell Titer-Glo, 72 h: HCC827. The conditions noted are these: Homo sapiens; HCC827 cells, 72 h; read-out: GI50.
Description: as §1, §2

The subject of experiment [6] is BaF3-FL-EGFR-T790M-L858R (stably expressing EGFR T790M/L858R mutant kinase). Put plainly: Cell growth, Cell Titer-Glo, 72 h: BaF3-FL-EGFR-T790M-L858R. The conditions noted are these: Mus musculus, BaF3-FL-EGFR-T790M-L858R cells.
Description: (§3) In addition, this example further uses: mouse BaF3-TEL-EGFR (stably expressing wild-type EGFR kinase), mouse BaF3-TEL-EGFR-L858R (stably expressing EGFR L858R mutant kinase), mouse BaF3-TEL-EGFR-T790M (stably expressing EGFR T790M mutant kinase), mouse BaF3-FL-EGFR-DeI19 (stably expressing EGFR delE746_A750 mutant kinase), mouse BaF3-FL-EGFR-T790M-L858R (stably expressing EGFR T790M/L858R mutant kinase), mouse BaF3/P210 (stably expressing bcr/abl˜(P210) mutant kinase), mouse BaF3-TEL-ABL-T315I (stably expressing ABLT315I mutant kinase), mouse BaF3-FLT3-ITD (stably expressing FLT3/ITD mutant kinase), mouse BaF3-TEL-JAK2 (stably expressing JAK2 kinase), mouse BaF3-TEL-JAK3 (stably expressing JAK3 kinase), mouse BaF3-TPR-MET (stably expressing MET kinase), mouse BaF3-TEL-BLK (stably expressing BLK kinase), mouse BaF3-TEL-ABL (stably expressing ABL kinase), mouse BaF3-TEL-BMX (stably expressing BMX kinase), mouse BaF3-TEL-ALK (stably expressing ALK kinase). The above cell lines were all constructed by our laboratory according to the following method: the kinase region sequences of human […], EGFR L858R, EGFR T790M, EGFR delE746_A750, EGFR T790M/L858R, bcr/abl˜(P210), ABL T315I, FLT3/ITD, JAK2, JAK3, MET, BLK, ABL, BMX, ALK were amplified respectively by PCR, inserted respectively into MSCV-Puro vectors harboring N-terminal fragment and/or NPM fragment and/or TPR fragment (Clontech), then the vectors were stably transfected into mouse BaF3 cells by retrovirus methods and growth factor IL-3 was removed, eventually obtaining cell lines that are transferred protein (EGFR, EGFR L858R, EGFR T790M, EGFR delE746_A750, EGFR T790M/L858R, bcr/abl˜(P210), ABL T315I, FLT3/ITD, JAK2, JAK3, MET, BLK, ABL, BMX, ALK)-dependent.
as §2

The test system of experiment [7] is BaF3-TEL-EGFR (stably expressing wild-type EGFR kinase). Briefly: Cell growth, Cell Titer-Glo, 72 h: BaF3-TEL-EGFR. The note with it: Mus musculus, BaF3-TEL-EGFR cells, read-out: GI50.
Description: as §3, §2

Experiment [8] relates to BaF3-TEL-EGFR-T790M (stably expressing EGFR T790M mutant kinase). Briefly: Cell growth, Cell Titer-Glo, 72 h: BaF3-TEL-EGFR-T790M. The conditions noted are these: Mus musculus, BaF3-TEL-EGFR-T790M cells, read-out: GI50.
Description: as §3, §2

Experiment [9] has as its system A431 (expressing wild-type EGFR gene). Briefly: Cancer cell growth, Cell Titer-Glo, 72 h: A431. The note with it: Homo sapiens, A-431; A431 cells, 72 h; read-out: GI50.
Description: as §1, §2

For `C=CC(=O)N1CCC[C@@H](n2nc(-c3ccc(OCc4cccc(F)c4)c(OC)c3)c3c(N)ncnc32)C1` [Compound 8], the GI50 is > 10000 nM with mouse pro-B cell BaF3; 350 nM in experiment [1]; 2700 nM in experiment [2]; 25 nM in experiment [3]; 56 nM in experiment [4]; 84 nM in [5]. In addition, in experiment [6], the GI50 is 43 nM.

With `C=CC(=O)N1CCC[C@@H](n2nc(-c3ccc(OCc4ccccc4)c(F)c3)c3c(N)ncnc32)C1` [Compound 12, (R)-1-(3-(4-amino-3-(4-(benzyloxy)-3-fluorophenyl)-1H-pyrazolo[3,4-d]pyrimidin-1-yl)piperidin-1-yl)prop-2-en-1-one], the GI50 turned out to be 7400 nM with mouse pro-B cell BaF3; 2800 nM in [7]; 80 nM in experiment [1]; 4300 nM in [2]; 11 nM in experiment [3]; 23 nM in [4]. Besides, the concentration for 50% growth inhibition (GI50) is < 0.3 nM in experiment [8] and 39 nM in experiment [5].

On to `C=CC(=O)N1CCC[C@@H](n2nc(-c3ccc(OCc4cccc(F)c4)c(F)c3)c3c(N)ncnc32)C1` [Compound 13, (R)-1-(3-(4-amino-3-(3-fluoro-4-((3-fluorobenzyl)oxy)phenyl)-1H-pyrazolo[3,4-d]pyrimidin-1-yl)piperidin-1-yl)prop-2-en-1-one], for which the 50% growth inhibitory concentration (GI50) in the experiment with mouse pro-B cell BaF3 is 5100 nM; in experiment [7], 2800 nM; in experiment [1] it was 17 nM; in [2] it was 7000 nM; in [3] it was 2 nM; in experiment [4], 15 nM. Also, the concentration for 50% growth inhibition (GI50) in experiment [8] is < 0.3 nM; in experiment [5], 16 nM.

For `C=CC(=O)N1CCC[C@@H](n2nc(-c3ccc(OCc4nccs4)c(Cl)c3)c3c(N)ncnc32)C1` [Compound 28, (R)-1-(3-(4-amino-3-(3-chloro-4-(thiazol-2-ylmethoxy)phenyl)-1H-pyrazolo[3,4-d]pyrimidin-1-yl)piperidin-1-yl)prop-2-en-1-one], the GI50 in the experiment with mouse pro-B cell BaF3 was 9800 nM; in experiment [7], 2800 nM; in experiment [9] it was > 10000 nM; in experiment [1] it was 8 nM; in [2], > 10000 nM; in experiment [3], 10 nM. Besides, the GI50 in [4] is < 0.3 nM; in experiment [6], 2 nM.

`C=CC(=O)N1CCC[C@@H](n2nc(-c3ccc(OCc4ccc(C)nc4)c(Cl)c3)c3c(N)ncnc32)C1` [Compound 30, (R)-1-(3-(4-amino-3-(3-chloro-4-((6-methylpyridin-3-yl)methoxy)phenyl)-1H-pyrazolo[3,4-d]pyrimidin-1-yl)piperidin-1-yl)prop-2-en-1-one]: the 50% growth inhibitory concentration (GI50) with mouse pro-B cell BaF3 was > 10000 nM; in [7], 3300 nM; in experiment [9] it was > 10000 nM; in experiment [1], 3 nM; in experiment [2], > 10000 nM; in experiment [3] it was 38 nM. Further, the GI50 in experiment [4] amounted to 36 nM; in [6] it was 2 nM.

As to `C=CC(=O)N1CCC[C@@H](n2nc(-c3ccc(F)c(Cl)c3)c3c(N)ncnc32)C1` [Compound 31, (R)-1-(3-(4-amino-3-(3-chloro-4-flurophenyl)-1H-pyrazolo[3,4-d]pyrimidin-1-yl)piperidin-1-yl)prop-2-en-1-one], the concentration for 50% growth inhibition (GI50) in the experiment with mouse pro-B cell BaF3 was > 10000 nM; in experiment [7], 2200 nM; in experiment [9] it was > 10000 nM; in experiment [1], 95 nM; in experiment [2] it was > 10000 nM; in experiment [3], 9 nM. Moreover, the GI50 in experiment [4] stood at 43 nM; in experiment [6], 53 nM.

Consider `CN(C)C/C=C/C(=O)N1CCC[C@@H](n2nc(-c3ccc(F)c(Cl)c3)c3c(N)ncnc32)C1` [Compound 32, (R)-1-(3-(4-amino-3-(3-chloro-4-flurophenyl)-1H-pyrazolo[3,4-d]pyrimidin-1-yl)piperidin-1-yl)-4-(dimethylamino)but-2-en-1-one], for which the GI50 in the experiment on mouse pro-B cell BaF3 is 4500 nM; in [7], 690 nM; in experiment [9], 3900 nM; in [1], 710 nM; in experiment [2], > 10000 nM; in [3] it was 170 nM. The results for the concentration for 50% growth inhibition (GI50) in [4] and in [6] were 330 nM and 130 nM, respectively.

In the case of `C=CC(=O)N1CCC[C@@H](n2nc(-c3ccc(OCc4ccccn4)c(C(F)(F)F)c3)c3c(N)ncnc32)C1` [Compound 35, (R)-1-(3-(4-amino-3-(3-trifluoromethyl-4-(pyridin-2-ylmethoxy)phenyl)-1H-pyrazolo[3,4-d]pyrimidin-1-yl)piperidin-1-yl)prop-2-en-1-one], the GI50 with mouse pro-B cell BaF3 is > 10000 nM; in experiment [7], 3600 nM; in [9] it was > 10000 nM; in [1], 56 nM; in experiment [2], 3100 nM; in experiment [3] it was 180 nM. Besides, the GI50 in [4] was 46 nM; in experiment [6] it was < 0.3 nM.

Turning to `C=CC(=O)N1CCC[C@@H](n2nc(-c3ccc(OCc4ncc(C)c(OC)c4C)c(Cl)c3)c3c(N)ncnc32)C1` [Compound 36, (R)-1-(3-(4-amino-3-(3-chloro-4-((4-methoxy-3,5-dimethylpyridin-2-yl)methoxy)phenyl)-1H-pyrazolo[3,4-d]pyrimidin-1-yl)piperidin-1-yl)prop-2-en-1-one], the GI50 was > 10000 nM in the experiment on mouse pro-B cell BaF3; 3500 nM in experiment [7]; > 10000 nM in [9]; < 0.3 nM in experiment [1]; 3400 nM in experiment [2]; 24 nM in experiment [3]. In addition, the GI50 in experiment [4] is 44 nM; in experiment [6] it was < 0.3 nM.

Regarding `C=CC(=O)Nc1cc(Cn2nc(-c3ccc(F)c(Cl)c3)c3c(N)ncnc32)ccc1N(C)CCN(C)C` [Compound 40], the GI50 was determined as 1900 nM in the experiment on mouse pro-B cell BaF3; 1300 nM in experiment [7]; 2600 nM in experiment [9]; 1200 nM in experiment [1]; 1000 nM in experiment [3]; 3700 nM in experiment [4]. Moreover, the 50% growth inhibitory concentration (GI50) in [5] turned out to be 1600 nM.
